Test results as given in patent US9994536B2, “Compounds and methods of treating neurological disorders” (TORREY PINES INSTITUTE FOR MOLECULAR STUDIES, priority 2014, dated 2018).
One block for each molecule: values may come before it.

Tests used:
sAPPα [1] = experiment: sAPPα ELISA, fibroblasts derived from AD patients; format: cell-based, human; details: 24 h
Protocol: (1). […] Therefore, we first used fibroblasts derived from AD patients (AG06263C, Coriell Cell repository, supported by NINDS/NIH) and exposed to THPI-244 for 24 h and measured sAPPα release by ELISA as done above for NT2 cells. […] We also confirmed dose-dependent effect of THPI-244 on sAPPα levels in human primary neurons transiently transfected with APP751 with Swedish mutation which is trafficked differently from WT APP and releases more sAPPα. Human neurons were grown on specially coated glass coverslips (cat #GG-18-PDL, NeuVitro, Germany). We could reproducibly achieve nearly 30% transfection efficiency using a nanoparticle based transfection reagent called Neuromag (cat #NM150299, OZ Biosciences, France).

sAPPα [2] = experiment: sAPPα ELISA, NT2 cells stably expressing APP751; format: cell-based, human; details: 24 h
Protocol: (§1) (5). To confirm the effect of THPI-244 on sAPPα levels in a neuronal cell line and by a tertiary assay, we exposed human Neuron-committed Teratocarcinoma cell line (NT2) stably expressing human APP751 to different concentrations of THPI-244 for 24 h and compared with that of Bryostatin, a classical activator of PKC known to stimulate sAPPα release. […] Levels of sAPPα were measured by ELISA using commercially available kit (cat #27734, IBL-America, Minneapolis, Minn., USA). […] Similar biphasic effect of Bryostatin was confirmed for Aβ42 also, measured again in NT2 stable cells by ELISA (cat #KHB3441, Life Technologies, Grand Island, N.Y., USA). Consistent with sAPPα, THPI-244 decreased Aβ42 levels dose-dependently starting from 50 nM (28%, p<0.05) to 2000 nM (64%, p<0.001) (n=4 independent experiments) (FIG. 1.7). Thus THPI-244 increased non-amyloidogenic processing of APP in NT2 cells.

Aβ42 = Aβ42 ELISA, NT2 stable cells; format: cell-based, human
Protocol: as §1

[3] = tested on: soluble APPα, soluble APPβ, Aβ; experiment: APP processing blots after SAHA, NT2 cells; format: cell-based, human
Source text: We utilized a commercially available AlphaLISA detection kit to develop an HTS assay for identification of compounds that increase sAPPα production in CHO cells stably expressing APP751 (7WD10 cells) (FIG. 2.1B). There are several cell lines that have been used extensively in Alzheimer's disease research. For example, NT2 cells are highly used in AD basic and drug discovery research because they are derived from a human embryonal carcinoma cell line and they can be differentiated into post-mitotic neuron-like cells that develop functional dendrites and axons resembling primary neurons of the human brain [39]. NT2 cells also synthesize amyloid precursor protein important in Alzheimer's disease. However, the rate of growth of NT2 cells is much slower than rate of growth of 7WD10s cells, which makes them less HTS-amenable. We have analyzed both 7WD10 and NT2 cells for expression of the hallmark proteins of Alzheimer's disease: soluble APPα, soluble APPβ, Arβ, and membrane-bound full length APP (APP-FL). […] Since it was shown that broad HDAC inhibition results in a decrease of AR and an increase of soluble APPα [41] we tested both cell lines for the effect of application of SAHA (suberoylanilide hydroxamic acid or vorinostat), a pan-HDAC inhibitor [42].

[4] = tested on: soluble APPα, soluble APPβ, Aβ; experiment: APP processing blots after SAHA, 7WD10 cells; format: cell-based
Protocol: (§2) Western blot sAPPα release assay. 7WD10 cells were grown in 6-well plates and treated with test compounds and SAHA (vorinostat) at several concentrations in duplicate wells. After 24 h of drug exposure, the conditioned media (CM) was collected, centrifuged to remove cell debris and subjected to SDS-PAGE electrophoresis. sAPPα (6E10, mouse IgG from IBL America ltd) was detected using indicated antibody. To detect APP-FL holoprotein and C-terminal fragments (CTFs, CT15 antibody), the cells were lysed using lysis buffer (1% NP40) with complete protease inhibitor mix (Sigma) supplemented with sodium vanadate and microcystine. Samples were subjected to SDS-PAGE, transferred and immunoblotted with indicated antibodies and detected by enhanced chemiluminescence method. Quantification of Western blot signals was done using ImageJ software.
We utilized a commercially available AlphaLISA detection kit to develop an HTS assay for identification of compounds that increase sAPPα production in CHO cells stably expressing APP751 (7WD10 cells) (FIG. 2.1B). There are several cell lines that have been used extensively in Alzheimer's disease research. […] We have analyzed both 7WD10 and NT2 cells for expression of the hallmark proteins of Alzheimer's disease: soluble APPα, soluble APPβ, Arβ, and membrane-bound full length APP (APP-FL). […]

[5] = tested on: sAPPα released from 7WD10 cells (CHO cells stably expressing APP751); experiment: AlphaLISA sAPPα release assay (pilot HTS); format: cell-based
Protocol: (1). The pilot screen was performed using five 384 well plates. […] FDA approved oncology set was screened at 10 μM final assay concentration, while thiazole derivatives were screened at 5 μM. Seven hits from thiazole derivatives were identified using Ave+3SD rule (45) as a nominal cutoff for hit determination (FIG. 1.1 (bottom)). The hits represented a novel piperazine thiazole chemotype (FIG. 1.2).
Pilot screen of AlphaLISA sAPPα release assay. 8 μL of assay media (DMEM supplemented with 10% FBS and 1× Penicillin/Streptomycin) containing 20,000 cells were added to all wells of the assay plate, except column 1 where only media was added. Plates were incubated for 4 h at 37° C., 5% CO2, 95% RH after which 80 nL of test compounds in DMSO or DMSO alone were added to respective wells using a pin tool device (VP Scientific, San Diego). After 24 h of incubation at 37° C., 5% CO2, 95% RH, sAPPα AlphaLISA beads were added in 10 μL of buffer, equilibrated for 1 h, and AlphaLISA signal was measured using a Biotek H4 Synergy microplate reader (Biotek Inc). Three parameters were calculated on a per-plate basis: (a) the signal-to-background ratio (S/B); (b) the coefficient for variation [CV; CV=(standard deviation/mean)×100)] for all compound test wells; and (c) the Z′-factor [31]. Nominally active compounds from the pilot screen were determined using mean plus 3 times the standard deviation (Mean+3SD) was used as the cut-off.
In the absence of known pharmacological agents capable of inducing an increase of sAPPα release, we tested a small molecule (FIG. 2.4A insert, compound 1 in [2]) shown to decrease Aβ release. It was shown that decrease of Aβ release could be accompanied by the increase of soluble APPα, which has a neuroprotective effect. Compound 1 was tested using 20,000 cells/well in the range of 1.2-100 μM using 3-fold serial dilutions and 24 h incubation as an assay endpoint. Increase of sAPPα release was observed only in wells where 100 μM of compound 1 was added either with or without FBS (FIG. 2.4A). Viability of cells was also tested in the presence of 1.2-100 μM of compound 1 to ascertain that the increase of sAPPα release is not due to excessive cell death. Consistent with the above described results, cells were less viable in the absence of FBS. In the presence of 1.2-33 μM of compound 1, cells were approximately 10% less viable than untreated control either with or without FBS (FIG. 2.4B).
To evaluate the ability of the assay to identify compounds that increase the release of sAPPα a pilot screen was conducted using FDA approved oncology set (n=101) and TPIMS heterocycles library (n=700). The pilot screen was performed using five 384 well plates. […]

[6] = tested on: sAPPα in supernatants of 7WD10 cells; experiment: Western blot sAPPα release assay, 7WD10 cells; format: cell-based; details: 10 nM, 7WD10 supernatant
Protocol: (2). To ascertain that hits identified as a result of AlphaLISA assay are not due to artifacts of the detection system, the sAPPα levels were measured by Western blots as a secondary assay downstream of primary HTS to confirm hits or discard artifacts of the AlphaLISA assay. The assay was performed using a range of concentrations of hit compounds (10-5,000 nM). A hit compound named thiazole piperazine #244 (THPI-244) and THPI-326 induced dose-dependent increase of sAPPα in supernatants of 7WD10 cells (FIG. 1.3). […] Since compound THPI-244 increased sAPPα levels more than THPI-326, we focused on THPI-244 for further validation.
as §2, with “To detect APP-FL holoprotein and C-terminal fragments (CTFs, CT15 antibody), the cells were lysed using lysis buffer (1% NP40) with complete protease inhibitor mix (Sigma) supplemented with sodium vanadate and microcystine.” left out

TrkA = TrkA (Homo sapiens, UniProt P04629); experiment: Table of THPI-244 analogs: TrkA increase
human sAPPα = experiment: sAPPα release ELISA, 7WD10 cells; format: cell-based; details: 24 h
Protocol: Starting from p-methylbenzhydrylamine hydrochloride (MBHA.HCl) resin; we developed different approaches toward the diversity oriented solid-phase parallel synthesis of different aminothiazole compounds 1-6 (Scheme 1) (Micheals, H A et al., 2014, ACS Comb. Sci. 16, 1-4; Nefzi, A et al., 2010, J. Org. Chem. 75, 7939-7941). 575 thiazole compounds were synthesized and were tested for sAPPα increasing activity using CHO cells stably expressing APP751wt. For initial screenings we used a cell-based human sAPPα ELISA kit (cat #27734, IBL Co., ltd, Japan) following instructions from the manufacturer. The method involves sandwich ELISA and use of two specific antibodies and tetra methyl benzidine as a coloring agent. […]
sAPPα and Aβ40 release ELISA assay. […] The principle of the method is based on the use of tetra methyl benzidine (TMB) as a chromogen and the strength of the generated color is proportional to the quantities of human sAPPα. […] Plates were incubated with chromogen solution for 30 minutes, and read at 450 nm after adding stop solution. Levels of Aβ40 in the CM treated with different concentrations of compound 1 as detailed above were measured by sandwich ELISA exactly as described previously. Aβ40 was captured with Ab9 antibody (epitope, 1-16 of Aβ40) and detected with horseradish peroxidase-conjugated Ab13.1.1 antibody (epitope, 35-40 of Aβ40).

TrkA, sequence (P04629 33-796, species assumed): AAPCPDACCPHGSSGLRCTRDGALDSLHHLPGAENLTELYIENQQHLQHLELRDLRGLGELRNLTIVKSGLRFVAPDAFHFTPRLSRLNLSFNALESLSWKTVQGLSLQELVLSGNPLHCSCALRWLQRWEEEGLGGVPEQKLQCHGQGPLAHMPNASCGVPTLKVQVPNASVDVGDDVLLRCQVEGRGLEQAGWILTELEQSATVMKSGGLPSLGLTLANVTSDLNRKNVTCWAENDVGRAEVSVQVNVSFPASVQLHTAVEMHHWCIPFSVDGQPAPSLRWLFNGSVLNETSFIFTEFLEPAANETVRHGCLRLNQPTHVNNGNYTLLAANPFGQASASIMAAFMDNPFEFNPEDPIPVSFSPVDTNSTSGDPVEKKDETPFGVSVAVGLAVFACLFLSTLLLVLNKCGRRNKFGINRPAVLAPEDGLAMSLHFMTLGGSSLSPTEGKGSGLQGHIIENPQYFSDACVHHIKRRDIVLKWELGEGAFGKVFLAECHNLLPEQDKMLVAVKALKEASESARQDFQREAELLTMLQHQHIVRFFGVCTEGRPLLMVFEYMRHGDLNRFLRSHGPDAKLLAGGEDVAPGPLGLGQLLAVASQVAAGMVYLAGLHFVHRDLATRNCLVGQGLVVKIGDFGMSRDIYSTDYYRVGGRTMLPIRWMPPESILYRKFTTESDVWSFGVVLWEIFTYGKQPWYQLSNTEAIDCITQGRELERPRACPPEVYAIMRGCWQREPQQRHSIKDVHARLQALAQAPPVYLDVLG

SMILES: CCC/C=C/C=C/C(=O)O[C@H]1/C(=C/C(=O)OC)C[C@H]2C[C@H]([C@@H](C)O)OC(=O)C[C@H](O)C[C@@H]3C[C@H](OC(C)=O)C(C)(C)[C@](O)(C[C@@H]4C/C(=C/C(=O)OC)C[C@H](/C=C/C(C)(C)[C@]1(O)O2)O4)O3 [Bryostatin, reference compound]
lowest concentration with significant increase of sAPPα (sAPPα [1]): 10 nM
effect on sAPPα release (sAPPα [2]): increased sAPPα at low nM concentrations, but then decreased levels dose-dependently
lowest concentration with significant increase of sAPPα (sAPPα [2]): 10 nM
lowest concentration with significant decrease of Aβ42 (Aβ42): 10 nM

SMILES: O=C(CCCCCCC(=O)Nc1ccccc1)NO [SAHA, suberoylanilide hydroxamic acid]
change of Aβ [3]: decrease
change of Aβ [4]: decrease

SMILES: CCC(C)C(=O)N1CCN(Cc2csc(NC[C@H](Cc3ccc(O)cc3)NC(=O)Cc3ccccc3)n2)CC1 (stereo partly drawn) [THPI-326]
increase of Alpha signal (sAPPα release) ([5]; 5 μM, 7WD10 cells, 24 h): ~2 fold
increase of sAPPα over untreated control cells (Western blot) [6]: 2 fold

% TrkA ⬆ (TrkA): 69%
SMILES: Cc1cnc(C(=O)N[C@H](CNc2nc(CN3CCNCC3)cs2)c2ccccc2)cn1 [TPI-2336-55]

% TrkA ⬆ (TrkA): 51%
SMILES: c1ccc(CCNc2nc(CN3CCOCC3)cs2)cc1 [TPI-2336-99]

% TrkA ⬆ (TrkA): 54%
SMILES: c1ccc(CCNc2nc(CN3CCCCC3)cs2)cc1 [TPI-2336-100]

SMILES: O=C(NCCSCc1cccc(Cl)c1)c1c(Cl)cccc1Cl [compound 1, 2,6-dichloro-N-{2-[(3-chlorobenzyl)thio]ethyl}benzamide, reference compound]
increase of sAPPα over untreated control cells (ELISA) (human sAPPα; 100 μM): 2 fold
maximal increase of sAPPα (ELISA) (human sAPPα; 150 μM): 3 fold
increase of AlphaLISA signal ([5]; 100 μM compound 1): 2 fold
concentration at which increase of sAPPα release was observed ([5]; range 1.2-100 μM, 24 h, with or without FBS): 100 µM
